Experimental data reported in EPA's ToxValDB 9.5 (doi:10.2903/j.efsa.2014.3691).
Where “and” joins values, the source holds several entries; their conditions need not be identical. Equal entries are not always repeated.

Assays:
Anas platyrhynchos = details: short-term; oral; feed; mortality
Apis mellifera = details: acute, duration: 48 hours, mortality
Daphnia magna = details: chronic/long-term; duration: 22 days; reproduction
Lepomis macrochirus = details: acute; duration: 96 hours; mortality
Tagia sp. = details: acute; duration: 14 days; mortality
Typhlodromus pyri = details: chronic/long-term; duration: 14 days; reproduction

CSC(=O)c1cccc2nnsc12 [Acibenzolar-S-methyl]
LC50 (Anas platyrhynchos): > 1540 mg/kg-day | LD50 (Apis mellifera; dermal): > 100 µg/piece | LD50 (Apis mellifera; oral, unspecified): 128 µg/piece | LD50 (Colinus virginianus; acute, oral, mortality): > 2000 mg/kg | NOEC (Colinus virginianus; reproduction developmental, reproduction): 61 mg/kg-day | NOEC (Daphnia magna): 44 µg/L | LC50 (Lepomis macrochirus): 2.8 µg/mL and 1.6 µg/mL | LC50 (Oncorhynchus mykiss; acute, duration: 96 hours, mortality): 0.4 µg/mL and 1.1 µg/mL and 0.88 µg/mL | NOEC (Oncorhynchus mykiss; chronic/long-term, duration: 87 days): 26 µg/L | LD50 (Rattus norvegicus; acute, oral, mortality): > 2000 mg/kg | LOAEL (Rattus norvegicus; reproduction developmental, body weight): 10 mg/kg-day | NOAEL (Rattus norvegicus; reproduction developmental, oral, diet): 15 mg/kg-day | LC50 (Tagia sp.): > 500 mg/kg | LEL (Typhlodromus pyri): 30 g/ha
